Source: the supplement of paper PMC10307832

Columns and labels:
Assay in all cases: relative viability (nuclei count vs DMSO), 5 days (fraction); higher = more cells survive
HOP-62 = test system: HOP-62
Summary of the method: (§1)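 Relative viability is defined as nuclei in treated wells over nuclei in vehicle wells. Duplicate plates were run and medians reported. Lung cancer cell lines in 1536-well plates were dosed by pin tool one day after seeding, with one drug or with a fixed anchor-drug dose plus five library-drug doses (not always all listed) in √10 steps, and nuclei were counted after 5 days.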

NCI-H1793 = test system: NCI-H1793
Summary of the method: as §1

UMC-11 = test system: UMC-11
Summary of the method: as §1

HCC-15 = test system: HCC-15
Summary of the method: as §1

NCI-H1395 = test system: NCI-H1395
Summary of the method: as §1

NCI-H2347 = test system: NCI-H2347
Summary of the method: as §1

NCI-H1993 = test system: NCI-H1993
Summary of the method: as §1

NCI-H2170 = test system: NCI-H2170
Summary of the method: as §1

NCI-H2009 = test system: NCI-H2009
Summary of the method: as §1

NCI-H2228 = test system: NCI-H2228
Summary of the method: as §1

NCI-H1355 = test system: NCI-H1355
Summary of the method: as §1

SK-MES-1 = test system: SK-MES-1
Summary of the method: as §1

NCI-H1734 = test system: NCI-H1734
Summary of the method: as §1

NCI-H522 = test system: NCI-H522
Summary of the method: as §1

COR-L 105 = test system: COR-L 105
Summary of the method: as §1

NCI-H358 = test system: NCI-H358
Summary of the method: as §1

HARA = test system: HARA
Summary of the method: as §1

NCI-H647 = test system: NCI-H647
Summary of the method: as §1

COR-L23 = test system: COR-L23
Summary of the method: as §1

NCI-H1755 = test system: NCI-H1755
Summary of the method: as §1

NCI-H838 = test system: NCI-H838
Summary of the method: as §1

## Nc1ccn([C@@H]2O[C@H](CO)[C@@H](O)[C@@H]2O)c(=O)n1 [Cytarabine] + Cc1cc(Nc2cc(N3CCN(C)CC3)nc(Sc3ccc(NC(=O)C4CC4)cc3)n2)n[nH]1 [Tozasertib] (partner 0.1 µM)
HOP-62; first compound 0.005 µM
  relative viability: 0.251
HOP-62; first compound 0.01581 µM
  relative viability: 0.259
HOP-62; first compound 0.05 µM
  relative viability: 0.282
HOP-62; first compound 0.5 µM
  relative viability: 0.0966
NCI-H1793; first compound 0.005 µM
  relative viability: 0.346
NCI-H1793; first compound 0.01581 µM
  relative viability: 0.32
NCI-H1793; first compound 0.05 µM
  relative viability: 0.333
NCI-H1793; first compound 0.1581 µM
  relative viability: 0.291
NCI-H1793; first compound 0.5 µM
  relative viability: 0.332
UMC-11; first compound 0.005 µM
  relative viability: 0.261
UMC-11; first compound 0.01581 µM
  relative viability: 0.219
UMC-11; first compound 0.05 µM
  relative viability: 0.222
UMC-11; first compound 0.1581 µM
  relative viability: 0.231
UMC-11; first compound 0.5 µM
  relative viability: 0.2
HCC-15; first compound 0.005 µM
  relative viability: 0.413
HCC-15; first compound 0.01581 µM
  relative viability: 0.57
HCC-15; first compound 0.05 µM
  relative viability: 0.577
HCC-15; first compound 0.1581 µM
  relative viability: 0.461
HCC-15; first compound 0.5 µM
  relative viability: 0.354
NCI-H1395; first compound 0.005 µM
  relative viability: 0.703
NCI-H1395; first compound 0.01581 µM
  relative viability: 0.633
NCI-H1395; first compound 0.05 µM
  relative viability: 0.434
NCI-H1395; first compound 0.1581 µM
  relative viability: 0.447
NCI-H1395; first compound 0.5 µM
  relative viability: 0.388
NCI-H2347; first compound 0.005 µM
  relative viability: 0.553
NCI-H2347; first compound 0.01581 µM
  relative viability: 0.427
NCI-H2347; first compound 0.05 µM
  relative viability: 0.444
NCI-H2347; first compound 0.1581 µM
  relative viability: 0.52
NCI-H2347; first compound 0.5 µM
  relative viability: 0.402
NCI-H1993; first compound 0.005 µM
  relative viability: 0.631
NCI-H1993; first compound 0.01581 µM
  relative viability: 0.633
NCI-H1993; first compound 0.05 µM
  relative viability: 0.681
NCI-H1993; first compound 0.1581 µM
  relative viability: 0.534
NCI-H1993; first compound 0.5 µM
  relative viability: 0.564
NCI-H2170; first compound 0.005 µM
  relative viability: 0.605
NCI-H2170; first compound 0.01581 µM
  relative viability: 0.5
NCI-H2170; first compound 0.05 µM
  relative viability: 0.409
NCI-H2170; first compound 0.1581 µM
  relative viability: 0.386
NCI-H2170; first compound 0.5 µM
  relative viability: 0.26
NCI-H2009; first compound 0.005 µM
  relative viability: 0.685
NCI-H2009; first compound 0.01581 µM
  relative viability: 0.795
NCI-H2009; first compound 0.05 µM
  relative viability: 0.786
NCI-H2009; first compound 0.1581 µM
  relative viability: 0.566
NCI-H2009; first compound 0.5 µM
  relative viability: 0.308
NCI-H2228; first compound 0.005 µM
  relative viability: 0.144
NCI-H2228; first compound 0.01581 µM
  relative viability: 0.204
NCI-H2228; first compound 0.05 µM
  relative viability: 0.207
NCI-H2228; first compound 0.1581 µM
  relative viability: 0.0929
NCI-H2228; first compound 0.5 µM
  relative viability: 0.105
NCI-H1355; first compound 0.005 µM
  relative viability: 0.52
NCI-H1355; first compound 0.01581 µM
  relative viability: 0.524
NCI-H1355; first compound 0.05 µM
  relative viability: 0.484
NCI-H1355; first compound 0.1581 µM
  relative viability: 0.269
NCI-H1355; first compound 0.5 µM
  relative viability: 0.314
SK-MES-1; first compound 0.005 µM
  relative viability: 0.583
SK-MES-1; first compound 0.01581 µM
  relative viability: 0.483
SK-MES-1; first compound 0.05 µM
  relative viability: 0.28
SK-MES-1; first compound 0.1581 µM
  relative viability: 0.179
SK-MES-1; first compound 0.5 µM
  relative viability: 0.159
NCI-H1734; first compound 0.005 µM
  relative viability: 0.245
NCI-H1734; first compound 0.01581 µM
  relative viability: 0.232
NCI-H1734; first compound 0.05 µM
  relative viability: 0.178
NCI-H1734; first compound 0.1581 µM
  relative viability: 0.117
NCI-H1734; first compound 0.5 µM
  relative viability: 0.112
NCI-H522; first compound 0.005 µM
  relative viability: 0.556
NCI-H522; first compound 0.01581 µM
  relative viability: 0.5
NCI-H522; first compound 0.05 µM
  relative viability: 0.476
NCI-H522; first compound 0.1581 µM
  relative viability: 0.482
NCI-H522; first compound 0.5 µM
  relative viability: 0.572
COR-L 105; first compound 0.005 µM
  relative viability: 0.305
COR-L 105; first compound 0.01581 µM
  relative viability: 0.317
COR-L 105; first compound 0.05 µM
  relative viability: 0.306
COR-L 105; first compound 0.1581 µM
  relative viability: 0.319
COR-L 105; first compound 0.5 µM
  relative viability: 0.334
NCI-H358; first compound 0.005 µM
  relative viability: 0.102
NCI-H358; first compound 0.01581 µM
  relative viability: 0.0922
NCI-H358; first compound 0.05 µM
  relative viability: 0.1
NCI-H358; first compound 0.1581 µM
  relative viability: 0.097
NCI-H358; first compound 0.5 µM
  relative viability: 0.0847
HARA; first compound 0.005 µM
  relative viability: 0.102
HARA; first compound 0.01581 µM
  relative viability: 0.102
HARA; first compound 0.05 µM
  relative viability: 0.0829
HARA; first compound 0.1581 µM
  relative viability: 0.0658
HARA; first compound 0.5 µM
  relative viability: 0.0703
NCI-H647; first compound 0.005 µM
  relative viability: 0.205
NCI-H647; first compound 0.01581 µM
  relative viability: 0.22
NCI-H647; first compound 0.05 µM
  relative viability: 0.0474
NCI-H647; first compound 0.1581 µM
  relative viability: 0.073
NCI-H647; first compound 0.5 µM
  relative viability: 0.0484
COR-L23; first compound 0.005 µM
  relative viability: 0.164
COR-L23; first compound 0.01581 µM
  relative viability: 0.141
COR-L23; first compound 0.05 µM
  relative viability: 0.159
COR-L23; first compound 0.1581 µM
  relative viability: 0.123
COR-L23; first compound 0.5 µM
  relative viability: 0.129
NCI-H1755; first compound 0.005 µM
  relative viability: 0.492
NCI-H1755; first compound 0.01581 µM
  relative viability: 0.452
NCI-H1755; first compound 0.05 µM
  relative viability: 0.421
NCI-H1755; first compound 0.1581 µM
  relative viability: 0.273
NCI-H1755; first compound 0.5 µM
  relative viability: 0.344
NCI-H838; first compound 0.005 µM
  relative viability: 0.29
NCI-H838; first compound 0.01581 µM
  relative viability: 0.319
NCI-H838; first compound 0.05 µM
  relative viability: 0.231
NCI-H838; first compound 0.1581 µM
  relative viability: 0.231
NCI-H838; first compound 0.5 µM
  relative viability: 0.161
